Results reported in US7531623B2, “Hydrochloride salts of a glycopeptide phosphonate derivative” (Theravance, Inc., priority 2003, dated 2009).

Assay: Stability of hydrochloride salts of telavancin on storage (HPLC area % of pseudoaglycone and aglycone impurities)
Assay type: physicochemical
Settings: for Aglycone of Cmpd 1 (HPLC area %) Initial / Pseudoaglycone of Cmpd 1 (HPLC area %) Initial: before storage at 25° C.; for Aglycone of Cmpd 1 (HPLC area %) 2 Week / Pseudoaglycone of Cmpd 1 (HPLC area %) 2 Week: stored at 25° C. for 2 weeks, glass vials; for Aglycone of Cmpd 1 (HPLC area %) 2-Week Change / Pseudoaglycone of Cmpd 1 (HPLC area %) 2-Week Change: stored at 25° C., difference between 2-week and initial value
Procedure: In the examples described below, HPLC sample analysis was conducted using an Agilent (Palo Alto, Calif.) Series 1100 instrument with Zorbax RP-Bonus 4.6 mm×250 mm columns, supplied by Agilent, having a 5 micron pore size, packed on C14 silica. Detection was by UV absorbance at 254 nm. Mobile phase A was 2%-98%-0.1% ACN-H2O-TFA; and mobile phase B was 90%-10%-0.1% ACN-H2O-TFA. A flow rate of 1.0 mL/min was used with moble phase A containing a gradient of mobile phase B as follows: 10 to 43% B for 30 min;, 43% B for 5 min; 43 to 100% B for 5 min; 100 to 10% B for 1 min; and 10% B for 14 min.
The effect of chloride ion content on the stability of hydrochloride salts of telavancin stored at −20° C., 5° C. and 25° C. was determined.
Eight lots of telavancin hydrochloride salts prepared as described in Example 2 were placed in identical glass vials and stored at −20° C., 5° C. and 25° C. under otherwise identical conditions for two weeks. The changes in HPLC area % for the pseudoaglycone and aglycone impurities were used to evaluate relative stability.
For each sample, the pH of the mixture from which it was isolated, is indicated. The column entitled, “2 Week Change” is the difference in HPLC area % between the value observed after two weeks and the initial value and is graphically illustrated in FIGS. 1 and 2.

| SMILES | Aglycone of Cmpd 1 (HPLC area %) Initial [HPLC area %] | Pseudoaglycone of Cmpd 1 (HPLC area %) Initial [HPLC area %] | Aglycone of Cmpd 1 (HPLC area %) 2 Week [HPLC area %] | Pseudoaglycone of Cmpd 1 (HPLC area %) 2 Week [HPLC area %] | Aglycone of Cmpd 1 (HPLC area %) 2-Week Change | Pseudoaglycone of Cmpd 1 (HPLC area %) 2-Week Change |
| --- | --- | --- | --- | --- | --- | --- |
| CCCCCCCCCCNCCN[C@@]1(C)C[C@H](O[C@H]2[C@H](Oc3c4cc5cc3Oc3ccc(cc3Cl)[C@@H](O)[C@@H](NC(=O)[C@@H](CC(C)C)NC)C(=O)N[C@@H](CC(N)=O)C(=O)N[C@H]5C(=O)N[C@H]3C(=O)N[C@H](C(=O)N[C@H](C(=O)O)c5cc(O)c(CNCP(=O)(O)O)c(O)c5-c5cc3ccc5O)[C@H](O)c3ccc(c(Cl)c3)O4)O[C@H](CO)[C@@H](O)[C@@H]2O)O[C@@H](C)[C@H]1O [2.42, telavancin] | 0.03 | 0.32 | 0.05 | 0.40 | +0.02 HPLC area % | +0.08 HPLC area % |
| CCCCCCCCCCNCCN[C@@]1(C)C[C@H](O[C@H]2[C@H](Oc3c4cc5cc3Oc3ccc(cc3Cl)[C@@H](O)[C@@H](NC(=O)[C@@H](CC(C)C)NC)C(=O)N[C@@H](CC(N)=O)C(=O)N[C@H]5C(=O)N[C@H]3C(=O)N[C@H](C(=O)N[C@H](C(=O)O)c5cc(O)c(CNCP(=O)(O)O)c(O)c5-c5cc3ccc5O)[C@H](O)c3ccc(c(Cl)c3)O4)O[C@H](CO)[C@@H](O)[C@@H]2O)O[C@@H](C)[C@H]1O [3.68, telavancin] | 0.06 | 0.43 | 0.08 | 0.51 | +0.02 HPLC area % | +0.08 HPLC area % |
| CCCCCCCCCCNCCN[C@@]1(C)C[C@H](O[C@H]2[C@H](Oc3c4cc5cc3Oc3ccc(cc3Cl)[C@@H](O)[C@@H](NC(=O)[C@@H](CC(C)C)NC)C(=O)N[C@@H](CC(N)=O)C(=O)N[C@H]5C(=O)N[C@H]3C(=O)N[C@H](C(=O)N[C@H](C(=O)O)c5cc(O)c(CNCP(=O)(O)O)c(O)c5-c5cc3ccc5O)[C@H](O)c3ccc(c(Cl)c3)O4)O[C@H](CO)[C@@H](O)[C@@H]2O)O[C@@H](C)[C@H]1O [3.94, telavancin] | 0.04 | 0.43 | 0.09 | 0.56 | +0.05 HPLC area % | +0.13 HPLC area % |
| CCCCCCCCCCNCCN[C@@]1(C)C[C@H](O[C@H]2[C@H](Oc3c4cc5cc3Oc3ccc(cc3Cl)[C@@H](O)[C@@H](NC(=O)[C@@H](CC(C)C)NC)C(=O)N[C@@H](CC(N)=O)C(=O)N[C@H]5C(=O)N[C@H]3C(=O)N[C@H](C(=O)N[C@H](C(=O)O)c5cc(O)c(CNCP(=O)(O)O)c(O)c5-c5cc3ccc5O)[C@H](O)c3ccc(c(Cl)c3)O4)O[C@H](CO)[C@@H](O)[C@@H]2O)O[C@@H](C)[C@H]1O [4.41, telavancin] | 0.06 | 0.42 | – | 0.53 | – | +0.11 HPLC area % |
| CCCCCCCCCCNCCN[C@@]1(C)C[C@H](O[C@H]2[C@H](Oc3c4cc5cc3Oc3ccc(cc3Cl)[C@@H](O)[C@@H](NC(=O)[C@@H](CC(C)C)NC)C(=O)N[C@@H](CC(N)=O)C(=O)N[C@H]5C(=O)N[C@H]3C(=O)N[C@H](C(=O)N[C@H](C(=O)O)c5cc(O)c(CNCP(=O)(O)O)c(O)c5-c5cc3ccc5O)[C@H](O)c3ccc(c(Cl)c3)O4)O[C@H](CO)[C@@H](O)[C@@H]2O)O[C@@H](C)[C@H]1O [4.59, telavancin] | 0.10 | 0.52 | 0.17 | 0.72 | +0.07 HPLC area % | +0.20 HPLC area % |
| CCCCCCCCCCNCCN[C@@]1(C)C[C@H](O[C@H]2[C@H](Oc3c4cc5cc3Oc3ccc(cc3Cl)[C@@H](O)[C@@H](NC(=O)[C@@H](CC(C)C)NC)C(=O)N[C@@H](CC(N)=O)C(=O)N[C@H]5C(=O)N[C@H]3C(=O)N[C@H](C(=O)N[C@H](C(=O)O)c5cc(O)c(CNCP(=O)(O)O)c(O)c5-c5cc3ccc5O)[C@H](O)c3ccc(c(Cl)c3)O4)O[C@H](CO)[C@@H](O)[C@@H]2O)O[C@@H](C)[C@H]1O [4.69, telavancin] | 0.07 | 0.45 | 0.13 | 0.62 | +0.06 HPLC area % | +0.17 HPLC area % |
| CCCCCCCCCCNCCN[C@@]1(C)C[C@H](O[C@H]2[C@H](Oc3c4cc5cc3Oc3ccc(cc3Cl)[C@@H](O)[C@@H](NC(=O)[C@@H](CC(C)C)NC)C(=O)N[C@@H](CC(N)=O)C(=O)N[C@H]5C(=O)N[C@H]3C(=O)N[C@H](C(=O)N[C@H](C(=O)O)c5cc(O)c(CNCP(=O)(O)O)c(O)c5-c5cc3ccc5O)[C@H](O)c3ccc(c(Cl)c3)O4)O[C@H](CO)[C@@H](O)[C@@H]2O)O[C@@H](C)[C@H]1O [5.60, telavancin] | 0.15 | 0.48 | 0.41 | 1.11 | – | – |
| CCCCCCCCCCNCCN[C@@]1(C)C[C@H](O[C@H]2[C@H](Oc3c4cc5cc3Oc3ccc(cc3Cl)[C@@H](O)[C@@H](NC(=O)[C@@H](CC(C)C)NC)C(=O)N[C@@H](CC(N)=O)C(=O)N[C@H]5C(=O)N[C@H]3C(=O)N[C@H](C(=O)N[C@H](C(=O)O)c5cc(O)c(CNCP(=O)(O)O)c(O)c5-c5cc3ccc5O)[C@H](O)c3ccc(c(Cl)c3)O4)O[C@H](CO)[C@@H](O)[C@@H]2O)O[C@@H](C)[C@H]1O [5.74, telavancin] | 0.43 | 0.89 | 1.08 | 1.94 | – | – |
